Experiment [1] has as its system γH2AX foci in CAOV3 cells. Briefly: Immunofluorescence staining of γH2AX foci. It is filed as cell-based, human. Particulars: CAOV3, time course, FIG. 2C. Here is the method:
Cells were harvested and washed with PBS twice, fixed in Z-fix solution (buffered zinc formalin fixatives, Anatech, Inc, Creek, Mich.) and permeabilized and blocked with 0.3% Triton X-100 in PBS containing 5% bovine serum albumin. The cells were then incubated with γ-H2AX antibody (1:250 dilution in 0.3% Triton X-100 in PBS containing 1% bovine serum albumin) overnight followed by three washes. Cells were incubated for 1 h with fluorescent-conjugated secondary antibodies (1:1000 dilution) followed by three washes. Slides were mounted with ProLong Gold antifade reagent with 4′,6-diamidino-2-phenylindole (DAPI) to stain cell nuclei (Molecular Probes). Fluorescence was viewed with Keyence Fluorescent Microscope using a 100× objective and quantitated with Image J software (the National Institutes of Health).
The structure of COMPOUND I is similar to drugs that bind to quadruplex structures in DNA which results in strand breaks; this led to the investigation of whether COMPOUND I caused damage to DNA. The parental Raji cells were treated with 0.5 μM COMPOUND I for increasing periods of time and induction of DNA damage was assessed by accumulation of the phosphorylated forms of ATM and γH2AX measured by Western blot analysis. […]

In experiment [2] the test system is gene expression in MV4-11 cells. Kind of experiment: RNA sequencing differential expression analysis. It is filed as cell-based. Here is the method: Treated MV4-11 cells were subjected to total RNA extraction (as for qRT-PCR analysis) and sequenced at the UCSD genomics core facility. RNA was processed using Illumina TruSeq and single end sequenced for 50-bp reads on the Illumina HiSeq4000. Data were analyzed by the McWeeny lab at Oregon Health and Science University (Portland, Oreg.). FASTQ files were assessed for read base distribution and sequence representation using FASTQC http://www.bioinformatics.babraham.ac.uk/projects/fastqc/. Reads were aligned to HG37 using SubRead v1.5.0-pl keeping uniquely mapped reads. Differential expression genes with less than 50 reads (across all 4 samples) were discarded. Raw data and processed files are available on GEO (https://www.ncbi.nlm.nih.gov/geo/query/acc.cgi?acc=GSE111949) accession number GSE111949.
To gain further insight into the pathways exploited by COMPOUND I to cause cell-cycle arrest and apoptosis, differential expression analysis was performed at both the mRNA and protein levels. MV4-11 cells were treated with either vehicle or 500 nmol/L COMPOUND I for 6 hours, and then gene expression was analyzed by RNA-seq. […] The RNA-seq analysis detected a 2-fold increase in KLF4 and a 4.5-fold increase in CDKN1A expression, which is validated by the qRT-PCR data with MV4-11 cells. The differentially regulated genes were analyzed for enriched pathways or GO (Gene Ontology) terms (FIG. 18A) utilizing the Broad Molecular Signatures database (http://software.broadinstitute.org/gsea/msigdb/index.jsp). As expected, apoptotic and cell-cycle pathways were enriched in the differentially expressed gene set. Unexpectedly, gene expression profiles after COMPOUND I treatment were also enriched in the DNA damage response (DDR) and endoplasmic reticulum (ER) stress/unfolded protein response pathways. […] Gene expression changes detected in MV4-11 cells raised the possibility that COMPOUND I could cause apoptosis by inducing DNA damage and activating cellular stress pathways, and/or by inhibition of expression of the MYC oncogene.

Consider `Cc1[nH]c2ccc(F)cc2c1-c1nc2c3cccnc3c3ncccc3c2[nH]1` [COMPOUND I, 2-(5-fluoro-2-methyl-1H-indol-3-yl)-1H-imidazo[4,5-f][1,10]phenanthroline], for which, in experiment [1], the “number of γH2AX foci” value was “increase in the number of foci was detectable at 1 h”. Besides, in experiment [2] (500 nmol/L, 6 hours), the “genes differentially regulated (>2-fold change and P<0.05)” value is listed as 1,643 genes; the genes downregulated was 1,227 genes; the genes upregulated was 416 genes; the “increase in BBC3” value is on record as 3.95 fold. In experiment [2] (500 nmol/L, 6 hours), the “increase in CDKN1A expression” value is 4.5 fold, the “increase in KLF4 expression” value is reported as 2 fold and the “increase in PMAIP1” value turned out to be 1.38 fold. Further, the KIT expression result in experiment [2] (6-hour treatment) is “decreased”. For the same molecule, the MYC expression entry in experiment [2] (6 hours) is recorded as “downregulated”.

For the origin of these results see patent publication US11149047B2, “Aryl imidazoles for treatment of cancer” (Aptose Biosciences Inc., priority 2017, dated 2021).
